Measurements taken from publication PMC4726814, “Molecular Characterization of E-Type Prostanoid Receptor 4 (EP4) from Ayu (Plecoglossus altivelis) and Its Functional Analysis in the Monocytes/Macrophages” (PLoS ONE, 2016).

Molecular target: T1, PaEP4L (Plecoglossus altivelis, UniProt A0A142DUN0)
T1 construct: gene EP4; MG1 insect cell membranes
Assay: [3H]-PGE2 saturation binding to MG1 insect cell membranes, Scatchard

T1 sequence (A0A142DUN0 1-459): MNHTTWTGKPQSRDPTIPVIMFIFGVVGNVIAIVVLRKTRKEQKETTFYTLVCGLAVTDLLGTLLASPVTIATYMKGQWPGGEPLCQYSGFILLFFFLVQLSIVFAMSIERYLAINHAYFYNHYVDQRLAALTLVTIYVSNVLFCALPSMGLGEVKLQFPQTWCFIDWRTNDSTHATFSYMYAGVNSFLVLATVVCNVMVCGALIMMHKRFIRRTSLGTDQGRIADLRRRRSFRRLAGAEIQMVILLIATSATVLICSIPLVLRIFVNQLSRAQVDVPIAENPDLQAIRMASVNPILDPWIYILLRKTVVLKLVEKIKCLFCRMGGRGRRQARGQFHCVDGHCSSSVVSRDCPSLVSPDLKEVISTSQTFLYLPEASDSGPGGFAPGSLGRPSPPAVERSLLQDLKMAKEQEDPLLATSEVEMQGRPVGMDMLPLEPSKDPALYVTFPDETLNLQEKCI

Kd: 120 nM
Compound: CCCCC[C@H](O)/C=C/[C@H]1[C@H](O)CC(=O)[C@@H]1C/C=C\CCCC(=O)O [PGE2]
